Measured values: paper PMC4929166, “Pharmacological evaluation of synthetic cannabinoids identified as constituents of spice” (Forensic Toxicology, 2016)

Assays:
CB1 receptor = CB1 receptor (Homo sapiens, UniProt P21554); assay: biochemical; type: binding; set-up: expressed in transfected cells; host or cells: CHO cells (membrane preparation); settings: for CB1 selectivity Ki CB2/KiCB1: Table S1, selectivity index from Ki values; for Ki: versus 0.1 nM [3H]CP55,940, CHO cell membranes, mean ± SEM of three to five experiments, read-out: Ki ± SEM Human CB1; for fold higher Ki value at CB1 receptors after introduction of a quinoline: amide-linked group A, compared with naphthyl analogue (8 vs 10; 9 vs 11)
CB2 receptor = CB2 receptor (Homo sapiens, UniProt P34972); assay: biochemical; type: binding; set-up: expressed in transfected cells; host or cells: CHO cells (membrane preparation); settings: for Ki: versus 0.1 nM [3H]CP55,940, CHO cell membranes, mean ± SEM of three to five experiments, read-out: Ki ± SEM Human CB2; for CB2 selectivity Ki CB1/KiCB2: Table S1, selectivity index from Ki values
human GPR18 = target: T1, human GPR18 (Homo sapiens, UniProt Q14330); assay: β-Arrestin recruitment assay (PathHunter) at GPR18; type: cell-based; settings: for Human GPR18 % activation / Human GPR18 % inhibition: β-arrestin assay; for Human GPR18 % activation: percent in brackets beside EC50 >10 µM; for Human GPR18 % inhibition: percent in brackets beside IC50
T1 construct: β-galactosidase enzyme fragment (PathHunter complementation tag)
T1 sequence (Q14330 1-331): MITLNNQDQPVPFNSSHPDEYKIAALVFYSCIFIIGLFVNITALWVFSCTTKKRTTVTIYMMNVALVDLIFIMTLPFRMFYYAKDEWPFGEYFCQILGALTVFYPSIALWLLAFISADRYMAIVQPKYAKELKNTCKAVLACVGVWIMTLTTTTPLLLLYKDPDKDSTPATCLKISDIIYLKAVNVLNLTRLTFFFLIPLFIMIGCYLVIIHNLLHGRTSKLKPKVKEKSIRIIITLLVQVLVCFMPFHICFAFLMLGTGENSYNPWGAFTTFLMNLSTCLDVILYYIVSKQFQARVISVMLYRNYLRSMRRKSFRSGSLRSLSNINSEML
Method: (§1) Recruitment of β-arrestin to the respective receptor was detected by using β-galactosidase enzyme fragment complementation technology (β-arrestin PathHunter™ assay, DiscoverX, Fremont, CA, USA) as previously described. Data were obtained from three independent experiments, performed in duplicates. Data were analyzed using Graph Pad Prism Version 4.02 (San Diego, CA, USA).

human GPR55 = target: T2, human GPR55 (Homo sapiens, UniProt Q9Y2T6); assay: β-Arrestin recruitment assay (PathHunter) at GPR55; type: cell-based; settings: for IC50: Human GPR55 IC50, β-arrestin assay, antagonist mode; for Human GPR55 % activation / Human GPR55 % inhibition: β-arrestin assay; for Human GPR55 % activation: percent in brackets beside EC50 >10 µM; for Human GPR55 % inhibition: percent in brackets beside IC50
T2 construct: β-galactosidase enzyme fragment (PathHunter complementation tag)
Method: as §1

CB1 receptor, sequence (P21554 whole entry): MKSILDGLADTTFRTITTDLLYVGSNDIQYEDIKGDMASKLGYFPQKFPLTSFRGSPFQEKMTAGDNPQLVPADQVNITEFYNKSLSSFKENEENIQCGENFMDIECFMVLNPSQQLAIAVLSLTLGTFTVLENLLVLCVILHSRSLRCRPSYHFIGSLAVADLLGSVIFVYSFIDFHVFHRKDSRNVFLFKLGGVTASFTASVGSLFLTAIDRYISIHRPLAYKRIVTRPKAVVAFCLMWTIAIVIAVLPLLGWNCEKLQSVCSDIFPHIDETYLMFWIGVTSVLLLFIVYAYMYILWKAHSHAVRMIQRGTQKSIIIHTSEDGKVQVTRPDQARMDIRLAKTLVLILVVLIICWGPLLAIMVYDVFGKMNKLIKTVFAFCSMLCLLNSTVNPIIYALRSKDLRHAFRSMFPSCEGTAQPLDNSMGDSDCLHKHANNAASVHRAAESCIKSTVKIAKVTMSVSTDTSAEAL
T2 sequence (Q9Y2T6 whole entry, the tested form may be a part): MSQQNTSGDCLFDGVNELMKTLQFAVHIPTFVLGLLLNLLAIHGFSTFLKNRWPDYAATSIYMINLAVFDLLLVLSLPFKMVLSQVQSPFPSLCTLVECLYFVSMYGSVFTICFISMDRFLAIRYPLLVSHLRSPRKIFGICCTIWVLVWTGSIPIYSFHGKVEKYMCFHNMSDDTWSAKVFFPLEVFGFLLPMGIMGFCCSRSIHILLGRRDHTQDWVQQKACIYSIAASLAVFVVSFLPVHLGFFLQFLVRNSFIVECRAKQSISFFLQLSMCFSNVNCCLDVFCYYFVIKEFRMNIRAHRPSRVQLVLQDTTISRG
CB2 receptor, sequence (P34972 whole entry): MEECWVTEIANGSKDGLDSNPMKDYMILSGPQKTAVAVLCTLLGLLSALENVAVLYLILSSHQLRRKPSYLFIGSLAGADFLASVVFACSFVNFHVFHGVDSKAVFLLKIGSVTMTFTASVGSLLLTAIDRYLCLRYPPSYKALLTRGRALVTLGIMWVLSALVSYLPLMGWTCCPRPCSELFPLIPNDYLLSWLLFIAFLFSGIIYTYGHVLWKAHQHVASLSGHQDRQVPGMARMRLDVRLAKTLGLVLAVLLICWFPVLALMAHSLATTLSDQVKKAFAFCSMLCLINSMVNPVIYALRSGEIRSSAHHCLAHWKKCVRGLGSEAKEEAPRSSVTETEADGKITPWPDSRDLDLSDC

## O=C(Nc1cccc2ccccc12)c1cn(CCCCCF)c2ccccc12 [Compound 5, 5F-NNEI]
CB1 receptor
  CB1 selectivity Ki CB2/KiCB1: 3.6
  Ki: 3.69 ± 1.97 nM
CB2 receptor
  Ki: 13.4 ± 1.6 nM
Human GPR18
  EC50: > 10000 nM
  IC50: > 10000 nM
  Human GPR18 % activation: −3%
  Human GPR18 % inhibition: −17%
Human GPR55
  EC50: > 10000 nM
  IC50: > 10000 nM
  Human GPR55 % activation: 25%
  Human GPR55 % inhibition: −8%

## O=C(Nc1cccc2ccccc12)c1cn(CCCCCCl)c2ccccc12 [Compound 6, 5Cl-NNEI]
CB1 receptor
  CB1 selectivity Ki CB2/KiCB1: 3.2
  Ki: 10.2 ± 2.2 nM
CB2 receptor
  Ki: 32.8 ± 10.8 nM
Human GPR18
  EC50: > 10000 nM
  IC50: > 10000 nM
  Human GPR18 % activation: 1%
  Human GPR18 % inhibition: −13%
Human GPR55
  EC50: > 10000 nM
  IC50: > 10000 nM
  Human GPR55 % activation: 28%
  Human GPR55 % inhibition: 5%

## O=C(Nc1cccc2ccccc12)c1nn(CCCCCF)c2ccccc12 [Compound 9, 5F-MN-18]
CB1 receptor
  CB1 selectivity Ki CB2/KiCB1: 1.5
  Ki: 1.65 ± 0.26 nM
CB2 receptor
  Ki: 2.5 ± 0.86 nM
Human GPR18
  EC50: > 10000 nM
  IC50: > 10000 nM
  Human GPR18 % activation: −26%
  Human GPR18 % inhibition: 23%
Human GPR55
  EC50: > 10000 nM
  IC50: > 10000 nM
  Human GPR55 % activation: 38%
  Human GPR55 % inhibition: −5%

## CCCCCn1nc(C(=O)Nc2cccc3cccnc23)c2ccccc21 [Compound 10, THJ]
CB1 receptor
  fold higher Ki value at CB1 receptors after introduction of a quinoline: 14 fold
  Ki: 103 ± 25 nM
CB2 receptor
  CB2 selectivity Ki CB1/KiCB2: 8.1
  Ki: 12.7 ± 4.1 nM
Human GPR18
  EC50: > 10000 nM
  IC50: > 10000 nM
  Human GPR18 % activation: 4%
  Human GPR18 % inhibition: 30%
Human GPR55
  EC50: > 10000 nM
  IC50: > 10000 nM
  Human GPR55 % activation: 11%
  Human GPR55 % inhibition: 50%

## O=C(Nc1cccc2cccnc12)c1nn(CCCCCF)c2ccccc12 [Compound 11, 5F-THJ]
CB1 receptor
  fold higher Ki value at CB1 receptors after introduction of a quinoline: 27 fold
  Ki: 22.6 ± 7.5 nM
CB2 receptor
  CB2 selectivity Ki CB1/KiCB2: 8.2
  Ki: 2.75 ± 0.99 nM
Human GPR18
  EC50: > 10000 nM
  IC50: > 10000 nM
  Human GPR18 % activation: −17%
  Human GPR18 % inhibition: 44%
Human GPR55
  EC50: > 10000 nM
  IC50: > 10000 nM
  Human GPR55 % activation: 28%

## CCCCCn1cc(C(=O)Nc2ccccc2)c2ccccc21 [Compound 14, SDB-006-N-phenyl-analog]
CB1 receptor
  Ki: 163 ± 17 nM
CB2 receptor
  Ki: 275 ± 25 nM
Human GPR18
  EC50: > 10000 nM
  IC50: > 10000 nM
  Human GPR18 % activation: 9%
  Human GPR18 % inhibition: −13%
Human GPR55
  EC50: > 10000 nM
  IC50: > 10000 nM
  Human GPR55 % activation: 20%
  Human GPR55 % inhibition: 1%

## O=C(NC12CC3CC(CC(C3)C1)C2)c1nn(Cc2ccc(F)cc2)c2ccccc12 [Compound 18, N-((3s,5s,7s)-Adamantan-1-yl)-1-(4-fluorobenzyl)-1H-indazole-3-carboxamide]
CB1 receptor
  Ki: 1.06 ± 0.29 nM
CB2 receptor
  CB2 selectivity Ki CB1/KiCB2: 6.1
  Ki: 0.174 ± 0.018 nM
Human GPR18
  EC50: > 10000 nM
  Human GPR18 % activation: −27%
  Human GPR18 % inhibition: (69 %)
Human GPR55
  EC50: > 10000 nM
  Human GPR55 % activation: −11%
  Human GPR55 % inhibition: (83 %)

## Cc1ccc(C(=O)c2cn(CCCCCF)c3ccccc23)c2ccccc12 [Compound 30, MAM-2201]
CB1 receptor
  Ki: 1.58 ± 0.76 nM
CB2 receptor
  CB2 selectivity Ki CB1/KiCB2: 2.7
  Ki: 0.582 ± 0.123 nM

## Cc1ccc(C(=O)c2cn(CCCC(C)F)c3ccccc23)c2ccccc12 (stereo not drawn) [Compound 32, MAM-2201-4-fluoropentyl-isomer]
CB1 receptor
  Ki: 3.23 ± 1.56 nM
CB2 receptor
  CB2 selectivity Ki CB1/KiCB2: 4.0
  Ki: 0.808 ± 0.057 nM
Human GPR55
  EC50: > 10000 nM
  IC50: 3070 ± 1480 nM
  Human GPR55 % activation: −41%

## CCCCCn1cc(C(=O)c2ccccc2OC)c2ccccc21 [Compound 33, RCS-4]
CB1 receptor
  Ki: 26.6 ± 6.6 nM
CB2 receptor
  CB2 selectivity Ki CB1/KiCB2: 9.3
  Ki: 2.86 ± 0.39 nM

## COc1ccccc1CC(=O)c1cn(CCC2CCCCC2)c2ccccc12 [Compound 34, RCS-8]
CB1 receptor
  Ki: 81.3 ± 15.8 nM
CB2 receptor
  CB2 selectivity Ki CB1/KiCB2: 5.6
  Ki: 14.6 ± 6.1 nM
